“And” between values parts separate entries of the source, which are not always exact repeats. Identical values can stand only once.
Legend:
[1] = test system: broad-leaf and grass weed species; experiment: Field testing of pre-emergence application of dicamba and acetochlor in Argentina and/or South Africa (Example 10); settings: for percent control X (ACETOCHLOR ALONE): early rating (14 day); for X (acetochlor alone): late rating (28 day);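 for all read-outs here: percent weed control in field trials, rated at 14 days (early) and 28 days (late) after treatment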
Palmer amaranth = experiment: Post-emergence application in Palmer amaranth under greenhouse conditions (Example 7); type: in vivo; settings: 24 days after application
Text: (§1) The following testing protocol was employed to evaluate the post-emergence application of herbicides and herbicide combinations as described in the following examples unless otherwise specified. The weed species to be treated were planted in 3.5 inch pots containing redi-earth potting mix and grown under greenhouse conditions. When the weed species reached a height of about four inches, herbicide was applied at the specified application rate using a track sprayer with a flat even nozzle type, 9501E nozzle size, and spray pressure of 165 kPa. After the application of the herbicide(s), the pots were only sub-irrigated as needed. Throughout the test period, temperature was maintained from about 20° C. to about 30° C. and relative humidity was maintained at about 30%. The plants were rated visually and percentage of weed control was determined for each treatment at 15 to 21 days after herbicide application.
(§2) Post-emergence application of several herbicides and herbicide combinations was evaluated in Palmer amaranth under greenhouse conditions. The plants were rated visually and percentage of weed control was determined at 24 days after herbicide application. The herbicides and herbicide combinations evaluated are listed in Table 7-A below together with the corresponding percent control data. The data represent an average value (n=6).
The results of the analysis are reported below in Table 7-B (glyphosate+dicamba), Table 7-C(glyphosate+metribuzin), and Table 7-D (dicamba+metribuzin).

velvetleaf = experiment: Post-emergence application in velvetleaf under greenhouse conditions (Example 8); type: in vivo; settings: velvetleaf, 24 days
Text: as §1
as §2, with “velvetleaf” for “Palmer amaranth”, “8-A” for “7-A”
The results of the analysis are reported below in Table 8-B (glyphosate+dicamba), Table 8-C(glyphosate+metribuzin), and Table 8-D (dicamba+metribuzin).

CCOCN(C(=O)CCl)c1c(C)cccc1CC [Acetochlor, 2-chloro-N-(ethoxymethyl)-6′-ethyl-o-acetotoluidide]
percent control X (ACETOCHLOR ALONE) ([1]; AMADE, 630 g/ha): 96.7% | X (acetochlor alone) ([1]; AMADE, 630 g/ha): 57.1% | percent control X (ACETOCHLOR ALONE) ([1]; AMADE, 1260 g/ha): 99.4% | X (acetochlor alone) ([1]; AMADE, 1260 g/ha): 69.4% | percent control X (ACETOCHLOR ALONE) ([1]; AMAQU, 630 g/ha): 64.3% | X (acetochlor alone) ([1]; AMAQU, 630 g/ha): 48.8% | percent control X (ACETOCHLOR ALONE) ([1]; AMAQU, 1260 g/ha): 81.4% | X (acetochlor alone) ([1]; AMAQU, 1260 g/ha): 70.0% | percent control X (ACETOCHLOR ALONE) ([1]; ANOCR, 630 g/ha): 47.0% | X (acetochlor alone) ([1]; ANOCR, 630 g/ha): 31.6% | percent control X (ACETOCHLOR ALONE) ([1]; ANOCR, 1260 g/ha): 59.5% | X (acetochlor alone) ([1]; ANOCR, 1260 g/ha): 45.2% | percent control X (ACETOCHLOR ALONE) ([1]; BIDPI, 630 g/ha): 17.5% | X (acetochlor alone) ([1]; BIDPI, 630 g/ha): 0.0% | percent control X (ACETOCHLOR ALONE) ([1]; BIDPI, 1260 g/ha): 47.5% | X (acetochlor alone) ([1]; BIDPI, 1260 g/ha): 27.5% | X (acetochlor alone) ([1]; BRAER, 630 g/ha): 47.5% | X (acetochlor alone) ([1]; BRAER, 1260 g/ha): 65.0% | percent control X (ACETOCHLOR ALONE) ([1]; CHEAL, 630 g/ha): 46.7% | X (acetochlor alone) ([1]; CHEAL, 630 g/ha): 80.3% | percent control X (ACETOCHLOR ALONE) ([1]; CHEAL, 1260 g/ha): 50.0% | X (acetochlor alone) ([1]; CHEAL, 1260 g/ha): 77.0% | percent control X (ACETOCHLOR ALONE) ([1]; CHRGA, 630 g/ha): 0.0% | X (acetochlor alone) ([1]; CHRGA, 630 g/ha): 0.0% | percent control X (ACETOCHLOR ALONE) ([1]; CHRGA, 1260 g/ha): 86.0% | X (acetochlor alone) ([1]; CHRGA, 1260 g/ha): 10.0% | percent control X (ACETOCHLOR ALONE) ([1]; COMBE, 630 g/ha): 0.0% | X (acetochlor alone) ([1]; COMBE, 630 g/ha): 0.0% | percent control X (ACETOCHLOR ALONE) ([1]; COMBE, 1260 g/ha): 12.5% | X (acetochlor alone) ([1]; COMBE, 1260 g/ha): 0.0% | percent control X (ACETOCHLOR ALONE) ([1]; CONFA, 630 g/ha): 10.0% | X (acetochlor alone) ([1]; CONFA, 630 g/ha): 0.0% | percent control X (ACETOCHLOR ALONE) ([1]; CONFA, 1260 g/ha): 77.5% | X (acetochlor alone) ([1]; CONFA, 1260 g/ha): 12.5% | percent control X (ACETOCHLOR ALONE) ([1]; CYNDA, 630 g/ha): 30.0% | percent control X (ACETOCHLOR ALONE) ([1]; CYNDA, 1260 g/ha): 49.2% | percent control X (ACETOCHLOR ALONE) ([1]; CYPES, 630 g/ha): 0.0% | X (acetochlor alone) ([1]; CYPES, 630 g/ha): 26.3% | percent control X (ACETOCHLOR ALONE) ([1]; CYPES, 1260 g/ha): 0.0% | X (acetochlor alone) ([1]; CYPES, 1260 g/ha): 33.3% | percent control X (ACETOCHLOR ALONE) ([1]; CYPRO, 630 g/ha): 44.1% | X (acetochlor alone) ([1]; CYPRO, 630 g/ha): 17.1% | percent control X (ACETOCHLOR ALONE) ([1]; CYPRO, 1260 g/ha): 51.0% | X (acetochlor alone) ([1]; CYPRO, 1260 g/ha): 25.8% | percent control X (ACETOCHLOR ALONE) ([1]; DATFE, 630 g/ha): 62.2% | X (acetochlor alone) ([1]; DATFE, 630 g/ha): 44.5% | percent control X (ACETOCHLOR ALONE) ([1]; DATFE, 1260 g/ha): 72.3% | X (acetochlor alone) ([1]; DATFE, 1260 g/ha): 58.5% | percent control X (ACETOCHLOR ALONE) ([1]; DIGER, 630 g/ha): 0.0% | X (acetochlor alone) ([1]; DIGER, 630 g/ha): 0.0% | percent control X (ACETOCHLOR ALONE) ([1]; DIGER, 1260 g/ha): 86.0% | X (acetochlor alone) ([1]; DIGER, 1260 g/ha): 12.5% and 12.4% | percent control X (ACETOCHLOR ALONE) ([1]; DIGSA, 630 g/ha): 63.1% | X (acetochlor alone) ([1]; DIGSA, 630 g/ha): 51.3% | percent control X (ACETOCHLOR ALONE) ([1]; DIGSA, 1260 g/ha): 72.1% | X (acetochlor alone) ([1]; DIGSA, 1260 g/ha): 59.2% | X (acetochlor alone) ([1]; DTTAE, 630 g/ha): 0.0% | X (acetochlor alone) ([1]; DTTAE, 1260 g/ha): 10.0% | percent control X (ACETOCHLOR ALONE) ([1]; ELEAF, 630 g/ha): 88.3% | X (acetochlor alone) ([1]; ELEAF, 630 g/ha): 20.3% | percent control X (ACETOCHLOR ALONE) ([1]; ELEAF, 1260 g/ha): 85.9% | X (acetochlor alone) ([1]; ELEAF, 1260 g/ha): 28.3% | percent control X (ACETOCHLOR ALONE) ([1]; HIBCA, 630 g/ha): 55.0% | X (acetochlor alone) ([1]; HIBCA, 630 g/ha): 37.5% | percent control X (ACETOCHLOR ALONE) ([1]; HIBCA, 1260 g/ha): 89.5% | X (acetochlor alone) ([1]; HIBCA, 1260 g/ha): 96.5% | X (acetochlor alone) ([1]; IPOBA, 630 g/ha): 0.0% | X (acetochlor alone) ([1]; IPOBA, 1260 g/ha): 0.0% | percent control X (ACETOCHLOR ALONE) ([1]; IPOPD, 630 g/ha): 27.5% | X (acetochlor alone) ([1]; IPOPD, 630 g/ha): 21.2% | percent control X (ACETOCHLOR ALONE) ([1]; IPOPD, 1260 g/ha): 71.3% | X (acetochlor alone) ([1]; IPOPD, 1260 g/ha): 63.0% | percent control X (ACETOCHLOR ALONE) ([1]; OVERALL, 630 g/ha): 49.8% | percent control X (ACETOCHLOR ALONE) ([1]; OVERALL, 1260 g/ha): 64.2% | X (acetochlor alone) ([1]; Overall, 630 g/ha): 37.8% | X (acetochlor alone) ([1]; Overall, 1260 g/ha): 50.8% | percent control X (ACETOCHLOR ALONE) ([1]; PERCENT WEED FREE, 1260 g/ha): 75.5% | percent control X (ACETOCHLOR ALONE) ([1]; POROL, 630 g/ha): 38.6% | X (acetochlor alone) ([1]; POROL, 630 g/ha): 26.7% | percent control X (ACETOCHLOR ALONE) ([1]; POROL, 1260 g/ha): 47.5% | X (acetochlor alone) ([1]; POROL, 1260 g/ha): 37.8% | X (acetochlor alone) ([1]; Percent Weed Free, 630 g/ha): 53.2% | X (acetochlor alone) ([1]; Percent Weed Free, 1260 g/ha): 63.8% | percent control X (ACETOCHLOR ALONE) ([1]; RCHBR, 630 g/ha): 57.0% | X (acetochlor alone) ([1]; RCHBR, 630 g/ha): 22.5% | percent control X (ACETOCHLOR ALONE) ([1]; RCHBR, 1260 g/ha): 87.7% | X (acetochlor alone) ([1]; RCHBR, 1260 g/ha): 67.4% | percent control X (ACETOCHLOR ALONE) ([1]; TAGMI, 630 g/ha): 89.9% | X (acetochlor alone) ([1]; TAGMI, 630 g/ha): 45.8% | percent control X (ACETOCHLOR ALONE) ([1]; TAGMI, 1260 g/ha): 95.3% | X (acetochlor alone) ([1]; TAGMI, 1260 g/ha): 65.0% | percent control X (ACETOCHLOR ALONE) ([1]; XANST, 630 g/ha): 59.7% | X (acetochlor alone) ([1]; XANST, 630 g/ha): 33.7% | percent control X (ACETOCHLOR ALONE) ([1]; XANST, 1260 g/ha): 72.6% | X (acetochlor alone) ([1]; XANST, 1260 g/ha): 37.7%

CSc1nnc(C(C)(C)C)c(=O)n1N [Metribuzin, 4-amino-6-(1,1-dimethylethyl)-3-(methylthio)-1,2,4-triazin-5(4H)-one]
PERCENT CONTROL (Palmer amaranth; 420 g/ha): 20.0% | PERCENT CONTROL (Palmer amaranth; 840 g/ha): 26.0% | PERCENT CONTROL (ACTUAL) (velvetleaf; Table 8-C, dose 420 g/ha): 22.0% | PERCENT CONTROL (ACTUAL) (velvetleaf; Table 8-C, dose 840 g/ha): 68.0% | PERCENT CONTROL (ACTUAL) (velvetleaf; Table 8-D, dose 420 g/ha): 22.0% | PERCENT CONTROL (ACTUAL) (velvetleaf; Table 8-D, dose 840 g/ha): 68.0%

Reference: US20150313228A1, “SYNERGISTIC HERBICIDAL COMBINATIONS AND METHODS OF USE” (priority 2012, published 2015)
